For one data set, the system named is Candida albicans. Briefly: in vivo activity against acute systemic candidosis in immune-normal mice. The settings on record: dose protecting 50% of mice on day 2 post-infection; mice infected i.v. with Candida albicans; oral dosing 1, 4 and 24 hours post-infection. The source says: The in vivo evaluation of the compounds can be carried out at a series of dose levels by intraperitoneal or intravenous injection, or by oral administration, to mice or rats which are inoculated with, e.g. a strain of Candida albicans, Aspergillus fumigatus or Cryptococcus neoformans. Activity may be based on the number of survivors from a treated group of mice after the death of an untreated group of mice.
For Candida spp. infection models the dose level at which the compound provides 50% protection against the lethal effect of the infection (PD50) is also assessed.
The Table below illustrates the in vivo activity against acute systemic candidosis in immune-normal mice for a selection of the compounds of the invention.
Mice were infected intravenously with Candida albicans in order to establish a systemic infection (all untreated control mice died by 2 days post-infection). Compound efficacy was assessed on the basis of survival after oral dosing (0.1-5 mg/kg; 1, 4 and 24 hours post-infection) and was measured as the dose protecting 50% of mice on day 2 post-infection.

Data set [1] can be described thus: 7-day toxicity study in rats. The format is in vivo. Particulars: 30 mg/kg p.o., o.d., 7 days.

`C[C@@H](c1ccc(/C=C/C(C)(C)O)cn1)[C@](O)(Cn1cncn1)c1ccc(F)cc1F` (relative stereo) [Example 9, Trans-(2R,3S/2S,3R)-1-(1,2,4-triazol-1-yl)-2-(2,4-difluorophenyl)-3-[5-{3-hydroxy-3-methylbut-1-en-1-yl}pyrid-2-yl]butan-2-ol]: the PD50 in the data set with Candida albicans was determined as 0.18 mg/kg.
For `C[C@@H](c1ccc(/C=C/c2ccnn2C)cc1)[C@](O)(Cn1cncn1)c1ccc(F)cc1F` [Example 1, Trans-(2R,3S)-1-(1,2,4-triazol-1-yl)-2-(2,4-difluorophenyl)-3-{4-[2-(1methylpyrazol-5-yl)ethenyl]phenyl}butan-2-ol], the “adverse effects in 7-day toxicity study” value in data set [1] is “no adverse effects”. The PD50 in the data set on Candida albicans was less than 0.10 mg/kg.
`C[C@@H](c1ccc(/C=C/c2c[nH]nn2)cn1)[C@](O)(Cn1cncn1)c1ccc(F)cc1F` (relative stereo) [Example 10, Trans-(2R,3S/2S,3R)-1-(1,2,4-triazol-1-yl)-2-(2,4-difluorophenyl)-3-{5-[2-(1,2,3-triazol-4-yl)ethenyl]pyrid-2-yl}butan-2-ol] yielded a PD50 in the data set with Candida albicans of 0.32 mg/kg.
On the same count and under the same terms, the figure for `C[C@@H](c1ccc(/C=C/n2ccnc2)cc1)[C@](O)(Cn1cncn1)c1ccc(F)cc1F` (relative stereo) [Example 5, Trans-(2R,3S/2S,3R)-1-(1,2,4-triazol-1-yl)-2-(2,4-difluorophenyl)-3-{4-[2-(imidazol-1-yl)ethenyl]phenyl}butan-2-ol] is 0.18 mg/kg.

The record behind these values is patent US6376526B1, “Triazole antifungal agents” (Pfizer Inc., priority 1996, dated 2002).
